Measured values reported in US20040123344A1, “Novel gene encoding an f-box protein which regulates leaf longevity in arabidopsis thaliana and mutant gene thereof” (priority 2000, published 2004).

B1: GAL4-AD fusion of ASK2(1-172), expressed from pGAD424-ASK2(1-172) [4] (other, Arabidopsis, UniProt Q9FHW7 1-171, looked up, not shown: large carriers)
chain: MSTVRKITLKSSDGENFEIDEAVALESQTIKHMIEDDCTDNGIPLPNVTSKILSKVIEYCKRHVEAAEKSETTADAAAATTTTTVASGSSDEDLKTWDSEFIKVDQGTLFDLILAANYLNIKGLLDLTCQTVADMIKGKTPEEIRKTFNIKNDFTPEEEEEVRRENQWAFE
notes: range 1-172; Yeast two-hybrid prey; also called Arabidopsis SKP1 homolog 2
B2: GAL4-AD fusion of ASK1(1-160), expressed from pGAD424-ASK1(1-160) [3] (other, Arabidopsis, UniProt Q39255 1-160, looked up, not shown: large carriers)
chain: MSAKKIVLKSSDGESFEVEEAVALESQTIAHMVEDDCVDNGVPLPNVTSKILAKVIEYCKRHVEAAASKAEAVEGAATSDDDLKAWDADFMKIDQATLFELILAANYLNIKNLLDLTCQTVADMIKGKTPEEIRTTFNIKNDFTPEEEEEVRRENQWAFE
notes: range 1-160; also called Arabidopsis SKP1 homolog 1; pGAD-ASK1(1-160)[3]
B3: GST-ASK1 fusion protein (other, Arabidopsis, UniProt Q39255 1-160, looked up, not shown: a dimerising Fc or GST)
chain: B2 chain
notes: also called GSK-ASK1

Experiments:
ore9 mutant leaves = type: in vivo, Arabidopsis thaliana; details: detached leaves at 12 DAE, 50 μM ABA or 50 μM MeJA in MES buffer pH 5.8, or 4.5 μM ethylene gas, three days at 22° C., continuous light
Description: (§1) In order to measure photosynthetic activities, a method of Oh S. A. et al., (Oh S. A. et al., Plant Mol. Biol. 30: 939, 1996) was used. First, the respective leaves were dark-treated for 15 minutes and measured for fluorescence of chlorophylls using a plant efficiency analyzer. The photosynthetic activity was expressed as photochemical efficiency of photosystemII (PSII) using a fluorescent property of chlorophylls. The photochemical efficiency was expressed as the ratio of maximum variable fluorescence (Fv) to maximum value of fluorescence (Fm) (Fv/Fm). As the ratio is increased, the photosynthesis efficiency improves.
(§2) Although senescence of leaves is known as a genetic programmed process, the initiation and progress of senescence can be changed by phytohormones, such as abscisic acid (ABA), methyl jasmonate (MeJA) and ethylene, that are plant growth inhibitory substances (Hensel et al., Plant Cell 5:553, 1993; Weidhase et al., Physiol. Plant 69:161, 1987; and Zeevaart et al, Annu. Rev. Plant Physiol. Plant Mol. Biol. 39:439, 1998). Thus, in this experiment, a change in leaf longevity of the ore9 mutant according to treatment with phytohormones was examined by measuring changes in photosynthetic activity and chlorophyll content. Detached leaves were floated in 3 mM 2-[N-morpholino]-ethanesulfonic acid (MES) buffer, pH 5.8, containing 50 μM ABA or 50 μM MeJA, while continuously being exposed to light. Treatment with ethylene was carried out by cultivation in a glass box containing 4.5 μM ethylene gas. The treatments with phytohormones as described above were carried out for three days at 22° C. with continuous exposure to light. At this time, 12 independent leaves at 12 DAE were used as samples, and the chlorophyll content and the photosynthetic activity were measured in the same manner as in Example 2.

[1] = test system: wild type Arabidopsis thaliana leaves; assay: Phytohormone treatment of detached leaves, photosynthetic activity (Fv/Fm of PSII); type: in vivo; details: detached leaves at 12 DAE, 50 μM ABA or 50 μM MeJA in MES buffer pH 5.8, or 4.5 μM ethylene gas, three days at 22° C., continuous light
Description: as §1, §2

[2] = biological target: T1, GAL4-BD fusion of ORE9 (1-49), expressed from pGBT9-ORE9 (1-49) [1] (Arabidopsis thaliana); assay: yeast two-hybrid assay, combination [1+4]
T1 construct: Yeast two-hybrid bait expressed in yeast HF7c; also called fragment containing only the F-box region of ORE9; pGBT-ORE9(1-49)[1]

[3] = biological target: T2, GAL4-BD fusion of ORE9 (50-693), expressed from pGBT9-ORE9 (50-693) [2] (Arabidopsis thaliana); assay: yeast two-hybrid assay
T2 construct: Yeast two-hybrid bait expressed in yeast HF7c; also called ORE9 derivative from which the F-box region was removed

[4] = biological target: T3, 35S-labeled ORE9 (50-693), in vitro translated (Arabidopsis thaliana, UniProt Q9SIM9 50-693); assay: in vitro GST pull-down of 35S-labeled protein
T3 sequence: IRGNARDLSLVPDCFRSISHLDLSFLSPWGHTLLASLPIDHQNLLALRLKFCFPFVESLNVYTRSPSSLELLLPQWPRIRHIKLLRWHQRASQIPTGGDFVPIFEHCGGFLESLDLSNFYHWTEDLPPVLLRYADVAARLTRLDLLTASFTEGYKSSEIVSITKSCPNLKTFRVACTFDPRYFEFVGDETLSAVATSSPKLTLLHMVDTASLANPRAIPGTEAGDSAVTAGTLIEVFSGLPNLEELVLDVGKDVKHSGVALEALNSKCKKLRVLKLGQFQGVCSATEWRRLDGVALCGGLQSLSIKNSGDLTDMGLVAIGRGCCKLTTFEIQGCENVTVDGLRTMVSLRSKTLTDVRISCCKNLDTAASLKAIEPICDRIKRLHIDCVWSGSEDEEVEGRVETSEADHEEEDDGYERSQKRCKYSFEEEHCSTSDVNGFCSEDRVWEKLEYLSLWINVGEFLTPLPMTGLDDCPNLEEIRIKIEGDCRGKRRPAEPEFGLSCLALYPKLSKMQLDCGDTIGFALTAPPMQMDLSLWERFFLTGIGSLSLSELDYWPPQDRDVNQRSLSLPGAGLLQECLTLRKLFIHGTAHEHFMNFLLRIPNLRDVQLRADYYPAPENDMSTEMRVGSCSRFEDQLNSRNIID
From the text: In order to examine that ORE9 protein or derivatives thereof directly bind with ASK1, a GST-ASK1 fusion protein and a ³⁵S-labeled ORE9 protein produced by in vitro translation were subjected to in vitro binding assay. To obtain a glutathione S-transferase (GST) protein and a GST-ASK1 fusion protein, a vector pGEX (APBiotech, Co.) and a vector pGEX-ASK1 were constructed, which express the above proteins, respectively. Artificial sequences represented by SEQ ID NO: 14 and SEQ ID NO: 15 were used as PCR primers to amplify a gene encoding the ASK1 fragment. The resulting PCR product was digested with EcoRI and NcoI restriction enzymes, and inserted into the restriction enzyme sites of the pGEX vector. Escherichia coli BL21(DE3) pLysS was transformed with the resulting two vectors, and GST and GST-ASK1 fusion proteins were expressed. The GST and GST-ASK1 fusion proteins were purified by chromatography with glutathione-Sepharose 4B beads. The purified proteins was subjected to electrophoresis with SDS-polyacryamide gets, dyed with Coomassie blue, and measured for their amount. […]
The proteins were quantitatively analyzed with SDS-PAGE and BAS radioanalytic imaging system (Japan). […]

Molecule | photosynthetic ability maintained after treatment (ore9 mutant leaves) [%] | photosynthetic activity after treatment [1] [%] | other results
CC1=CC(=O)CC(C)(C)[C@@]1(O)/C=C/C(C)=C\C(=O)O [ABA, abscisic acid] | 93 | 65 | –
CC/C=C\CC1C(=O)CCC1CC(=O)OC (stereo not drawn) [MeJA, methyl jasmonate] | 70 | 38 | –
C=C [ethylene] | 82 | 54 | –
B1 | – | – | binding result [2]: no binding
B2 | – | – | binding result [3]: no binding
B3 | – | – | binding result [4]: no binding
